{
  "source": "patent US7790740B2",
  "about": "(priority 2003, dated 2010)",
  "key": {"HIV-1 fusion": {"test_system": "HIV-1 fusion", "test": "gp160 induced cell-cell fusion assay (HeLa P4 / CHO-Tat10)", "type": "cell-based", "conditions": "Human immunodeficiency virus 1, HeLaP4, read-out: IC50 against HIV-1 fusion (gp160 induced cell-cell fusion)", "protocol": "The gp160 induced cell-cell fusion assay uses a HeLa P4 cell line and a CHO-Tat10 cell line.\nThe HeLa P4 cell line expresses CCR5 and CD4 and has been transfected with HIV-1 LTR-β-Galactosidase. The media for this cell line is Dulbecco modified eagle's medium (D-MEM) (without L-glutamine) containing 10% foetal calf serum (FCS), 2 mM L-glutamine penicillin/streptomycin (Pen/Strep; 100 U/mL penicillin+[…] streptomycin), and 1 μg/ml puromycin.\nThe CHO cell line is a Tat (transcriptional trans activator)-expressing clone from a CHO JRR17.1 cell line that has been transfected with pTat puro plasmid. […]\nUpon cell fusion, Tat present in the CHO cell is able to transactivate the HIV-1 long terminal repeat (LTR) present in the HeLa cell leading to the expression of the β-Galactosidase enzyme. This expression is then measured using a Fluor Ace™ β-Galactosidase reporter assay kit (Bio-Rad cat no. 170-3150). This kit is a quantitative fluorescent assay that determines the level of expression of β-galactosidase using 4-methylumbelliferul-galactopyranoside (MUG) as substrate. β-Galactosidase hydrolyses the fluorogenic substrate resulting in release of the fluorescent molecule 4-methylumbelliferone (4 MU). Fluorescence of 4-methylumbelliferone is then measured on a fluorometer using an excitation wavelength of 360 nm and emission wavelength of 460 nm. […]"}, "CCR5": {"molecular_target": "CCR5 (Homo sapiens, UniProt P51681)", "sequence (P51681 whole entry)": "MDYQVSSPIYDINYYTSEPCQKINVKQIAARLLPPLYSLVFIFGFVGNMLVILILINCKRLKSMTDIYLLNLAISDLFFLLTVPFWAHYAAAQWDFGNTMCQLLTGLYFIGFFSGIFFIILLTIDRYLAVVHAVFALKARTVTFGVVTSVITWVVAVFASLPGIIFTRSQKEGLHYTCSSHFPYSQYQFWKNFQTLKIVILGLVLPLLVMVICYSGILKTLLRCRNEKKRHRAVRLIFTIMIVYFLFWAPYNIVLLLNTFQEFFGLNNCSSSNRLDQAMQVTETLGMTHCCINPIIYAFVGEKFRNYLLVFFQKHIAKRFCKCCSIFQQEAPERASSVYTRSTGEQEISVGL", "test": "assay for CCR5 binding according to Combadiere et al", "source_text": "Biol., 60, 147-52 (1996); and/or by using the intracellular calcium mobilisation assays as described by the same authors. Cell lines expressing the receptor of interest include those naturally expressing the receptor, such as PM-1, or IL-2 stimulated peripheral blood lymphocytes (PBL), or a cell engineered to express a recombinant receptor, such as CHO, 300.19, L1.2 or HEK-293."}},
  "note": "Read-outs that look alike come from different tables or passages of the source.",
  "data": [
    {"smiles": "CCC(=O)N1CCc2c(nc(C)n2[C@H]2C[C@H]3CC[C@@H](C2)N3CC[C@H](NC(C)=O)c2cccc(F)c2)C1", "note": "[Example 5, N-{(1S)-3-[3-endo-(2-Methyl-5-propionyl-4,5,6,7-tetrahydro-1H-imidazo[4,5-c]pyridin-1-yl)-8-azabicyclo[3.2.1]oct-8-yl]-1-(3-fluorophenyl)propyl}acetamide]", "values": [
      {"measurement": "IC50", "setting": "HIV-1 fusion", "result": 0.12, "unit": "nM"},
      {"measurement": "IC50", "setting": "CCR5; IC50 CCR5 binding (MIP-1α), ligand MIP-1α", "result": 2.7, "unit": "nM"},
      {"measurement": "IC50", "setting": "CCR5; IC50 CCR5 binding (MIP-1β), ligand MIP-1β", "result": 2.4, "unit": "nM"},
      {"measurement": "IC50", "setting": "CCR5; IC50 CCR5 binding (RANTES), ligand RANTES", "result": 1.9, "unit": "nM"}
    ]},
    {"smiles": "CC(=O)N[C@@H](CCN1[C@@H]2CC[C@H]1C[C@@H](n1c(C)nc3c1CCN(C(=O)C(C)C)C3)C2)c1cccc(F)c1", "note": "[Example 4, N-{(1S)-3-[3-endo-(5-Isobutyryl-2-methyl-4,5,6,7-tetrahydro-1H-imidazo[4,5-c]pyridin-1-yl)-8-azabicyclo[3.2.1]oct-8-yl]-1-(3-fluorophenyl)propyl}acetamide]", "values": [
      {"measurement": "IC50", "setting": "CCR5; ligand MIP-1α, read-out: IC50 CCR5 binding (MIP-1α)", "result": 7.5, "unit": "nM"},
      {"measurement": "IC50", "setting": "CCR5; ligand MIP-1β, read-out: IC50 CCR5 binding (MIP-1β)", "result": 7.3, "unit": "nM"},
      {"measurement": "IC50", "setting": "CCR5; ligand RANTES, read-out: IC50 CCR5 binding (RANTES)", "result": 6.7, "unit": "nM"}
    ]},
    {"smiles": "CC(=O)N[C@@H](CCN1[C@@H]2CC[C@H]1C[C@@H](n1c(C)nc3c1CCN(C(C)=O)C3)C2)c1cccc(F)c1", "note": "[Example 1, N-{(1S)-3-[3-endo-(5-Acetyl-2-methyl-4,5,6,7-tetrahydro-1H-imidazo[4,5-c]pyridin-1-yl)-8-azabicyclo[3.2.1]oct-8-yl]-1-(3-fluorophenyl)propyl}acetamide]", "values": [
      {"measurement": "IC50", "setting": "HIV-1 fusion", "result": 0.13, "unit": "nM"}
    ]}
  ]
}
